Experimental data reported in patent publication US10738028B2, “Spiro three-membered ring, spiro five-membered ring peptide deformylase inhibitor and use thereof in antibacteria and anti-tumor” (priority 2016, dated 2020).

Assays:
Format in all cases: cell-based
[1] = test system: MGC-803 gastric cancer cell line; experiment: CCK-8 proliferation inhibition
Procedure, shortened: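 Cells seeded at 2000 cells/well, cultured overnight at 37 °C, 5% CO2, then exposed 72 h to compound dilutions in medium with 10% newborn bovine serum (1‰ DMSO control). Viability read with 1:10 diluted CCK-8 solution. Media: PC3 in F12; MGC-803 and Jurkat in 1640; MCF-7 in DMEM high glucose.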

[2] = test system: A549 lung cancer cell line; experiment: CCK-8 proliferation inhibition
Procedure, shortened: (§1)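 Plating at 2000 cells/well, then incubation overnight at 37° C. Next, a range of compound concentrations for 72 hours (control 1‰ DMSO). Finally, medium decanted and CCK-8 diluted 1:10 added.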

[3] = test system: BEL-7402 liver cancer cell line; experiment: CCK-8 proliferation inhibition
Procedure, shortened: as §1

[4] = test system: methicillin-sensitive Staphylococcus epidermidis (MSSE); experiment: MIC, two-fold agar dilution (CLSI), clinical isolates
Procedure, shortened: (§2)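 Following the American Clinical and Laboratory Standards Institute procedure, agar two-fold dilution served to determine minimum inhibitory concentrations.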

[5] = test system: Enterococcus faecium (EFM); experiment: as above
Procedure, shortened: as §2

[6] = test system: methicillin-resistant Staphylococcus epidermidis (MRSE); experiment: as above
Procedure, shortened: as §2

[7] = test system: methicillin-sensitive Staphylococcus aureus (MSSA); experiment: as above
Procedure, shortened: as §2

[8] = test system: Enterococcus faecalis (EFA); experiment: as above
Procedure, shortened: as §2

[9] = test system: Escherichia coli (including ESBLs, non-ESBLs); experiment: as above
Procedure, shortened: as §2

[10] = test system: Moraxella catarrhalis (BCA); experiment: as above
Procedure, shortened: as §2

[11] = test system: Streptococcus pneoumoniae (SPN); experiment: as above
Procedure, shortened: as §2

[12] = test system: methicillin-resistant Staphylococcus aureus (MRSA); experiment: as above
Procedure, shortened: as §2

[13] = test system: HCT-116 colorectal cancer cell line; experiment: CCK-8 proliferation inhibition; settings: 72 hours, CCK-8
Procedure, shortened: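 Cells seeded at 2000 cells/well, cultured overnight at 37 °C, 5% CO2, then exposed to compound (DMSO; control 1‰ DMSO) for 72 h in McCoy's 5A with 10% newborn bovine serum. Viability read with 1:10 diluted CCK-8.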

[14] = concentration of 30 μM, 72 hours, 30 µM

O=C(C[C@@H](CC1CCCC1)C(=O)N1CC2(CC2)C[C@@H]1c1nc2ccccc2[nH]1)NO [Example 76, (R)-4-((R)-6-(1H-benzimidazol-2-yl)-5-azaspiro[2.4]heptane-5-yl)-3-(cyclopentylmethyl)-N-hydroxy-4-oxobutanamide]
> 32 µg/mL: Anti-bacterial activity (MIC), strain MSSE 15-3 ([4]; clinical isolate MSSE 15-3) | Anti-bacterial activity (MIC), strain MSSE 15-4 ([4]; clinical isolate MSSE 15-4) | Anti-bacterial activity (MIC), strain MSSE 15-5 ([4]; clinical isolate MSSE 15-5) | Anti-bacterial activity (MIC), strain MSSE 15-6 ([4]; clinical isolate MSSE 15-6) | Anti-bacterial activity (MIC) ([5]; strain EFM 15-1) | Anti-bacterial activity (MIC) ([5]; strain EFM 15-2) | Anti-bacterial activity (MIC) ([5]; strain EFM 15-3) | Anti-bacterial activity (MIC), strain MRSE 15-1 ([6]; clinical isolate MRSE 15-1) | Anti-bacterial activity (MIC), strain MRSE 15-2 ([6]; clinical isolate MRSE 15-2) | Anti-bacterial activity (MIC), strain MRSE 15-3 ([6]; clinical isolate MRSE 15-3) | Anti-bacterial activity (MIC), strain MRSE 15-7 ([6]; clinical isolate MRSE 15-7) | Anti-bacterial activity (MIC), strain MSSA 15-3 ([7]; clinical isolate MSSA 15-3) | Anti-bacterial activity (MIC), strain MSSA 15-4 ([7]; clinical isolate MSSA 15-4) | Anti-bacterial activity (MIC), strain MSSA 15-5 ([7]; clinical isolate MSSA 15-5) | Anti-bacterial activity (MIC), strain MSSA 15-6 ([7]; clinical isolate MSSA 15-6) | Anti-bacterial activity (MIC) ([8]; strain EFA 15-1) | Anti-bacterial activity (MIC) ([8]; strain EFA 15-2) | Anti-bacterial activity (MIC) ([8]; strain EFA 15-3) | Anti-bacterial activity (MIC) ([8]; strain EFA 15-4) | Anti-bacterial activity (MIC) ([8]; strain EFA 15-5) | Anti-bacterial activity (MIC) ([8]; strain EFA 15-6) | Anti-bacterial activity (MIC) ([8]; strain EFA 15-9) | Anti-bacterial activity (MIC), strain ECO+ 15-1 ([9]; clinical isolate ECO+ 15-1) | Anti-bacterial activity (MIC), strain ECO+ 15-2 ([9]; clinical isolate ECO+ 15-2) | Anti-bacterial activity (MIC), strain ECO+ 15-3 ([9]; clinical isolate ECO+ 15-3) | Anti-bacterial activity (MIC), strain ECO+ 15-4 ([9]; clinical isolate ECO+ 15-4) | Anti-bacterial activity (MIC), strain ECO− 15-1 ([9]; clinical isolate ECO− 15-1) | Anti-bacterial activity (MIC), strain ECO− 15-2 ([9]; clinical isolate ECO− 15-2) | Anti-bacterial activity (MIC), strain ECO− 15-3 ([9]; clinical isolate ECO− 15-3) | Anti-bacterial activity (MIC), strain ECO− 15-4 ([9]; clinical isolate ECO− 15-4) | Anti-bacterial activity (MIC) ([10]; strain BCA 14-4) | Anti-bacterial activity (MIC) ([10]; strain BCA 14-5) | Anti-bacterial activity (MIC) ([10]; strain BCA 14-6) | Anti-bacterial activity (MIC) ([10]; strain BCA 14-7) | Anti-bacterial activity (MIC) ([10]; strain BCA 14-8) | Anti-bacterial activity (MIC) ([10]; strain BCA 14-10) | Anti-bacterial activity (MIC), strain MRSA 15-1 ([12]; clinical isolate MRSA 15-1) | Anti-bacterial activity (MIC), strain MRSA 15-2 ([12]; clinical isolate MRSA 15-2) | Anti-bacterial activity (MIC), strain MRSA 15-3 ([12]; clinical isolate MRSA 15-3) | Anti-bacterial activity (MIC), strain MRSA 15-4 ([12]; clinical isolate MRSA 15-4)
16.6 µM: IC50 ([1]; Homo sapiens, MGC-803, 72 hours)
8.58 µM: IC50 ([3]; Homo sapiens, Bel-7402, 72 hours)
16 µg/mL: Anti-bacterial activity (MIC) ([5]; strain EFM 15-4) | Anti-bacterial activity (MIC) ([5]; strain EFM 15-5)
10.8 µM: IC50 ([13]; Homo sapiens, HCT-116)
2 µg/mL: Anti-bacterial activity (MIC) ([10]; strain BCA 14-1)
87%: HCT116 inhibition rate/% ([13]; concentration of 30 μM, 30 µM)
67%: Inhibition of proliferation, Liver cancer BEL-7402 [3, 14]
64%: Inhibition of proliferation, Gastric cancer MGC-803 [1, 14]
9.29 µM: IC50 ([2]; Homo sapiens, A549, 72 hours)
32 µg/mL: Anti-bacterial activity (MIC) ([5]; strain EFM 15-6)
4 µg/mL: Anti-bacterial activity (MIC) ([11]; strain SPN 16-4)
> 50%: inhibition at 30 µM ([1]; Homo sapiens, MGC-803, 72 h, concentration of 30 μM) | inhibition at 30 µM ([3]; Homo sapiens, Bel-7402, 72 h, concentration of 30 μM)
94%: Inhibition of proliferation, Lung cancer A549 [2, 14]
8 µg/mL: Anti-bacterial activity (MIC) ([11]; strain SPN 16-2)
